How the values were obtained:
Format in all cases: cell-based
human PPARγ = molecular target: T1, human PPARγ (Homo sapiens, UniProt P37231); assay: stable reporter HeLa cell line, GAL4-PPARγ ligand activity; details: 5 μM compound, relative to 1 μM BRL49653; FIG. 7
T1 construct: expressed in transfected cells
T1 sequence (P37231 238-503 limits assumed): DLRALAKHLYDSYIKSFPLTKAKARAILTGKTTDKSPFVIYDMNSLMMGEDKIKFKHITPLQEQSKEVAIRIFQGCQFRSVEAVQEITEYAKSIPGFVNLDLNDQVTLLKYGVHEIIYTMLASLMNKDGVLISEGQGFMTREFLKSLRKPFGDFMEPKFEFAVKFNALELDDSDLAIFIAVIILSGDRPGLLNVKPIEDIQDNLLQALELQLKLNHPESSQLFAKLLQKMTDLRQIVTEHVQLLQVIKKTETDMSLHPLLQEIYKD
Description: (§1) To screen the human PPARα, PPARδ and PPARγ ligand activity of the compounds a stable reporter cell line was used (HeLa cell line). The stable reporter cell line express respectively a chimeric protein containing the ligand binding domain (LBD) of human PPARα, human PPARδ and human PPARγ fused to the yeast transactivator GAL4 DNA binding domain (DBD). The luciferase (Luc) reporter gene is driven by a pentamer of the GAL4 recognition sequence in front of a β-globin promoter. The use of GAL4-PPARα, GAL4-PPARδ and GAL4-PPARγ chimeric receptors allows for elimination of background activity from endogenous receptors and quantification of relative activity across the three PPAR subtypes with the same reporter gene. […] Luciferase activity was measured by a luminometer and luciferase activity was expressed as relative light units (RLU).
Day 1: Seed 96—well plate with PPAR cells. Cell appearance was checked using optical microscopy. Cells were cultivated at confluency (80-100%). […]
Day 3: To determine the PPAR subtype activity of the tested compounds, the percentage of PPAR ligand activity was calculated for each tested compound as follows:
Percentage of PPARγ activity for the tested compound in 5 μM concentration=(RLUXcomp×100)/RLUBRL49653 where RLUBRL49653 is the luminescence measured from PPARγ cells incubated with 1 μM […] and expressed as Relative Light Units. […]

human PPARα = molecular target: T2, human PPARα (Homo sapiens, UniProt Q07869); assay: stable reporter HeLa cell line, GAL4-PPARα ligand activity; details: 5 μM compound, relative to 1 μM GW7647; FIG. 6
T2 construct: expressed in transfected cells
T2 sequence (Q07869 239-466 limits assumed): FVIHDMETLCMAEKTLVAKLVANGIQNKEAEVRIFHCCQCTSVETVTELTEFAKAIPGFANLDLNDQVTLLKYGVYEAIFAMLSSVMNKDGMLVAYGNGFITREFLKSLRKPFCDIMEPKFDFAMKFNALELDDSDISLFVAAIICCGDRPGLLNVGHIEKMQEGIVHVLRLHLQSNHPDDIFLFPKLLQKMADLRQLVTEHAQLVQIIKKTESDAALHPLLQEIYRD
Description: as §1
Day 1: Seed 96—well plate with PPAR cells. Cell appearance was checked using optical microscopy. Cells were cultivated at confluency (80-100%).
Day 2: The test articles dissolved in DMSO were added to the cells. The controls (positive controls and the solvent control) were included in each individual plate. […]
Day 3: To determine the PPAR subtype activity of the tested compounds, the percentage of PPAR ligand activity was calculated for each tested compound as follows: […]

ARPE-19 cells = assay: oxidative stress (tert-butyl hydroperoxide) cytolysis assay in ARPE-19 retinal pigment epithelial cells
Experimental: In order to evaluate the potential of BIZ-101 to protective the eye from oxidative stress damage the compound was tested in a cell based assay. Oxidative stress was induced in an ARPE-19 cell line using tert-butyl hydroperoxide at different concentrations. The cellular viability was kinetically monitored and measured by analysing the plasma membrane integrity based on the incorporation of a non-permeant and fluorescent DNA intercalating agent that selectively stain cytolytic cells with comprised plasma membranes.
(§2) The ARPE-19 cell line was seeded and cultured in DMEM-F12 medium+10% SVF for 24 hrs in a 96 well plate. Cells were pre-treated or not with either fenofibric acid (25 μM) or compound BIZ-101 (10 μM) during this 24 hr period. After 24 hrs, the different concentrations of t-butyl hydroperoxide were added in the presence of a fluorescent DNA intercalating agent for the following monitoring. Live content time-lapse imaging was performed with a sampling rate of 1 image every 2 hr over a 96 hrs period. The number of fluorescent/cytolytic cells were counted and reported during the experiment. The treatment conditions were tested in one experiment session in a triplicate format.
Fenofibric acid was used at 25 μM and was ordered from Sigma Aldrich. The day of the pre-treatment, a 25 mM stock solution of fenofibric acid was prepared in DMSO and diluted in the complete culture medium at 25 μM. 100 μL of this solution or 100 μL of complete culture medium+0.1% DMSO replaced the 100 μL of the complete culture medium already present in the well. The day of the treatment with t-butyl hydroperoxide, a 2 times concentrated solution of fenofibric acid was freshly diluted in the complete culture medium and 50 μL of this solution or 50 μL of complete culture medium+0.2% DMSO were added to the 100 μL of the culture medium already present in the well.
Compound BIZ-101 was tested at a final concentration of 10 μM. A 10 mM predilution was prepared in DMSO from a 10 mM stock solution. The 10 mM solution of BIZ 101 was diluted in the complete culture medium at 10 μM. 100 μL, of this solution or 100 μL of the complete culture medium+0.1% DMSO replaced the 100 μL, of the complete culture medium already present in the well. The day of the treatment with t-butyl hydroperoxide, a 2 times concentrated solution of BIZ 101 was freshly diluted in the complete culture medium and 50 μL of this solution or 50 μL of complete culture medium+0.2% DMSO were added to the 100 μL of the culture medium already present in the well.
Preparation of the tert-butyl hydroperoxide [tBHP] solution: 0, 0.01 mM, 0.03 mM, 0.1 mM, 0.3 mM, 1 mM, 3 mM and 10 mM. A 4 times concentrated solution of tBHP was freshly diluted in the complete culture medium for each of the concentrations to be tested. 50 μL of the 4 times concentrated solution was added to the 150 μL of the cultured medium.
In order to evaluate the potential of BIZ-102 to protect the eye from oxidative stress damage the compound was tested in a cell based assay similar to Example 24 with the following changes. The oxidative stress in the ARPE-19 cell line was induced by using 3 different concentrations of tBHP: 10 μM, 30 μM and 100 μM and BIZ-102 was tested in 2 different concentrations: 1 μM and 10 μM.
as §2, with “with” for “with either fenofibric acid (25 μM) or”, “BIZ-102 (1 μM and 10” for “BIZ-101 (10”
Compound BIZ-102 was tested at a final concentration of 1 and 10 μM. […]

neuroblastoma cells = assay: mitochondrial DNA damage in neuroblastoma cells (RT-qPCR, TaqI cleavage); details: 10 μM compound, 24 hours, high glucose (20 mM); FIG. 3
Experimental: In this study, neuroblastoma cells were cultivated at near confluency (50-75%) in DMEM/F12/10% serum high glucose (20 mM) supplied with 10 μM BIZ-101 or BIZ-105 for 24 hours prior to analyses. These conditions readily induce mtDNA damage that is representative of that accumulating during aging as the result of age-associated oxidative stress.
For DNA damage analyses, cells were washed, and DNA isolated using Qiagen Blood&Tissue DNA isolation kit. DNA damage level was analyzed by a RT-qPCR method based on the ability of DNA lesions to inhibit restriction enzyme cleavage, as described previously (http://www.ncbi.nlm.nih.gov/pubmed/25631007) using primers 5′-[…]-3′ and 5′-[…]-3′ (sense and anti sense, respectively). Briefly, genomic DNA (6 ng) was treated with 1 U TaqI for 15 min at 65° C. DNA damage frequency was calculated as 2exp−(ctTaql−ctnt), where ctTaql and ctnt represent CT values of TaqI-treated and non-treated genomic DNA, respectively.

NF-κB pathway = assay: NF-κB luciferase reporter assay in NF-κB Reporter-HEK293 cells, TNFa stimulated; details: FIG. 5
Description: The NF-κB reporter (luc)-HEK293 cell line is designed for monitoring the nuclear factor Kappa B (NF-κB) signal transduction pathways. It contains a firefly luciferase gene driven by four copies of NF-κB response element located upstream of the minimal TATA promoter. After activation by pro-inflammatory cytokines or stimulants of lymphokine receptors, endogenous NF-κB transcription factors bind to the DNA response elements, inducing transcription of the luciferase reporter gene.
NF-κB Reporter-HEK293 cells were cultured in MEM medium with 10% FBS, 1% non-essential amino acids, 1 mM Na-pyruvate, 1% Penn-strep, and 100 µg/ml of Hygromycin B.
To perform the NF-κB luciferase reporter assay, NF-κB Reporter-HEK293 cells were seeded at 40,000 cells per well into white clear-bottom 96-well microplate in 45 μl of growth medium without Hygromycin B. Cells were incubated at 37° C. and 5% CO2 overnight to allow them to recover and reattach. The following day a series of dilutions of compounds were made in assay medium (MEM medium with 0.5% FBS, 1% non-essential amino acids, 1 mM Na-pyruvate, 1% Penn-strep). The medium was removed from the wells and 45 μl of diluted compound was added to the cells. Assay medium with DMSO was added to the untreated control wells and cell-free control wells. The final concentration of DMSO was 0.25%. The cells were incubated overnight at 37° C. in CO2 incubator. […]
After treatment, cells were then lysed and a luciferase assay was performed using the ONE-Step luciferase assay system. […] Luminescence was measured using a luminometer (BioTek Synergy™ 2 microplate reader).
Reporter assays were performed in triplicate at each concentration. The luminescence intensity data were analyzed using the computer software, Graphpad Prism. In the absence of the compound, the luminescence intensity (Lt) in each data set was defined as 100%. In the absence of cells, the luminescence intensity (Lb) in each data set was defined as 0%. The percent luminescence in the presence of each compound was calculated according to the following equation: % Luminescence=(L−Lb)/(Lt−Lb), where L=the luminescence intensity in the presence of the compound, Lb=the luminescence intensity in the absence of cells, and Lt=the luminescence intensity in the absence of the compound. The values of % luminescence versus a series of compound concentrations were then plotted using non-linear regression analysis of a Sigmoidal dose-response curve generated with the equation Y=B+(T B)/1+10^((Log EC50-X)×Hill Slope), where Y=percent luminescence, B=minimum percent luminescence, T=maximum percent luminescence, X=logarithm of compound and Hill Slope=slope factor or Hill coefficient. The IC50 value was determined by the concentration causing a half-maximal percent activity.

| SMILES | PPARγ activation (human PPARγ) | PPARα activity (human PPARα) | dose dependent cytotoxicity of tBHP (ARPE-19 cells; 6 hrs after addition of tBHP, 24 hr pre-treatment, fenofibric acid 25 μM, BIZ-101 10 μM) | protective effects against tBHP cytotoxicity (ARPE-19 cells; 24 hrs after addition of t-BHP, fenofibric acid 25 μM, BIZ-101 10 μM) | protective effect compared with fenofibric acid (ARPE-19 cells; BIZ-101 10 μM vs fenofibric acid 25 μM) | effect on retinal pigment epithelial cells during conditions of oxidative stress (ARPE-19 cells; overall conclusion) | mtDNA damage (neuroblastoma cells) | dose dependence of inhibitory effect on the NF-κB pathway (NF-κB pathway) | complete inhibition of the NF-κB pathway (NF-κB pathway; at high concentration) |
| --- | --- | --- | --- | --- | --- | --- | --- | --- | --- |
| CC/C=C\C/C=C\C/C=C\C/C=C\C/C=C\CCOCC(=O)O [BIZ-108, 3-oxa-(6Z,9Z,12Z,15Z,18Z)-heneicosa-(6,9,12,15,18)-pentaenoic Acid] | activated PPARγ except for the unsubstituted derivative BIZ-108 | all compounds except BIZ-108 had potent activity |  |  |  |  |  |  |  |
| CC/C=C\C/C=C\C/C=C\C/C=C\C/C=C\CCC(CC)C(=O)O (stereo not shown) [BIZ-101, 2-ethyleicosa-(all-Z)-5,8,11,14,17-pentaenoic Acid] |  |  | slightly decreased | more efficient | much more potent | protective effect | reduced mtDNA damage | dose dependent | completely inhibited |
| CC/C=C\C/C=C\C/C=C\C/C=C\C/C=C\C/C=C\CC(C)C(=O)O (stereo not shown) [BIZ-105, 2-methyldocosa-(all-Z)-4,7,10,13,16,19-hexaenoic Acid] |  |  |  |  |  |  | slightly reduced level of mtDNA damage |  |  |
